The structures appear in SMILES notation.

The values below come from US7897397B2, “Cell fusion promoter and utilization of the same” (Kowa Company, Ltd., priority 2004, dated 2011).

The experiment deals with myocardial cell/bone marrow cell co-culture system. Description: Cell fusion in myocardial cell/bone marrow cell co-culture, fused cells (MF20- and EGFP-positive) counted by flow cytometry. The experiment is classed as cell-based, rat. An excerpt:
From a 1- to 2-day-old Wistar-Kyoto rat, the heart was removed, and myocardial cells were isolated therefrom and cultured. Bone marrow mononuclear cells separated from the bone marrow of an EGFP (enhanced green fluorescent protein) transgenic rat were introduced into the myocardial cells, followed by co-culture thereof.
Flow cytometry was used to quantitatively determine the number of these fused cells. The cells were fixed with paraformaldehyde in the same manner as above, then fluorescence-immunostained in a suspended state with primary antibody MF20, a biotin-conjugated anti-mouse antibody as secondary antibody and a streptavidin/PerCP-cye5.5 conjugate as tertiary antibody, and analyzed by flow cytometry. 50,000 cells were analyzed for each analysis. […] The cells in the gate R4 in FIG. 2 (D) were confirmed to be fused cells positive to both MF20 and EGFP.
Then, according to a similar manner to that described above, ATP was added at a concentration of 0 mM (control), 1 mM, 2 mM and 3 mM respectively to the myocardial cell/bone marrow cell co-culture system, and the number of fused cells was examined. Each group at the predetermined concentration of ATP was stained in the same manner as in FIG. 2 and analyzed by flow cytometry. The results are shown in the graphs in FIGS. 3A-D.
The result is shown in the graph in FIG. 4. In FIG. 4, the ratio (%) of the number of fused cells to the total number of cells is shown on the ordinate, and the concentration of ATP (0 mM, 1 mM, 2 mM and 3 mM) is shown on the abscissa. The asterisk (*) in FIG. 4 indicates significance (p<0.05) relative to the control group. As a result, it was confirmed that only about 0.1% fused cells were formed in the control group in the absence of ATP, while about 0.5% fused cells that are about 5-times as much as in the control group were formed in the group to which 1 or 2 mM ATP had been added.
According to the method of Minamino et al. (Minamino T., Gaussin V., DeMayo F. J., et al., Circ. Res. 2001; 88:587-592), the heart was removed from a 1- to 2-day-old Wistar-Kyoto rat and myocardial cells were isolated. […]
Then, the number of the fused cells was quantitatively determined by flow cytometry. After 1 week of co-culture, the cells were treated with trypsin and fixed with paraformaldehyde in the same manner as above, fluorescence-immunostained in a suspended state with primary antibody MF20 (labeled with PerCP-cye5.5 and captured as being positive to FL-3), biotin-conjugated anti-mouse Ig's antibody (BD Pharmingen) as secondary antibody, and streptavidin/PerCP-cye5.5 conjugate (BD Pharmingen) as tertiary antibody, and analyzed by flow cytometry. 50,000 cells were analyzed for each analysis. […]

For `Nc1ncnc2c1ncn2[C@@H]1O[C@H](COP(=O)(O)OP(=O)(O)OP(=O)(O)O)[C@@H](O)[C@H]1O` [ATP, adenosine 5′-triphosphate], under “1 mM or 2 mM ATP added, flow cytometry, 50,000 cells analyzed”, the “number of the fused cells compared with the control group (in words)” value is “higher than in the control group”. Further, the “fused cells relative to the control group (times as much)” value (1 or 2 mM ATP added vs control in the absence of ATP) is listed as “about 5 times”. Besides, where the note is “1 or 2 mM ATP added, 1 week of co-culture, control without ATP about 0.1%”, the “ratio (%) of the number of fused cells to the total number of cells” value was “about 0.5%”. Also, where the note is “1 or 2 mM ATP added, p<0.05 relative to the control group”, the “ratio of the number of fused cells as compared with the control group (in words)” value was “increased significantly”.
